The assay concerns the target USP19 (Homo sapiens (Human), UniProt O94966). The assay can be described thus: USP19 activity assay (fluorescence polarisation, Ubiquitin-Lys-TAMRA substrate). Type of assay: biochemical. As to conditions: full-length USP19 2.5 nM, 30 min pre-incubation, Ub substrate 500 nM; average of at least two duplicate experiments. The procedure: Unless otherwise stated, all other reagents were purchased from Sigma. Enzymatic reactions were conducted in black flat bottom polystyrene 384-well plates (Nunc) and 30 μL total volume. […] Inhibitors were stored as 10 mM DMSO stocks in an inert environment (low humidity, dark, low oxygen, room temperature) using the Storage Pod System and serial dilutions were prepared in buffer just prior to the assay (from 200 μM to 2 pM, 8-18 data point curve). Following incubation at RT for 30 min, the enzymatic reactions were initiated by dispensing the Ub substrate (500 nM, 10 μL). FP was measured every 15 min over a period of 90 min (within the linear range of the assay) using a Synergy 4 plate reader (BioTek) exciting at 530 nm and measuring the amount of parallel and perpendicular light at 575 nm. The FP signal was subsequently normalised to the no compound control.

What is called IC50 is the point on the concentration scale where inhibition reaches its midpoint.

USP19, sequence (O94966 whole entry): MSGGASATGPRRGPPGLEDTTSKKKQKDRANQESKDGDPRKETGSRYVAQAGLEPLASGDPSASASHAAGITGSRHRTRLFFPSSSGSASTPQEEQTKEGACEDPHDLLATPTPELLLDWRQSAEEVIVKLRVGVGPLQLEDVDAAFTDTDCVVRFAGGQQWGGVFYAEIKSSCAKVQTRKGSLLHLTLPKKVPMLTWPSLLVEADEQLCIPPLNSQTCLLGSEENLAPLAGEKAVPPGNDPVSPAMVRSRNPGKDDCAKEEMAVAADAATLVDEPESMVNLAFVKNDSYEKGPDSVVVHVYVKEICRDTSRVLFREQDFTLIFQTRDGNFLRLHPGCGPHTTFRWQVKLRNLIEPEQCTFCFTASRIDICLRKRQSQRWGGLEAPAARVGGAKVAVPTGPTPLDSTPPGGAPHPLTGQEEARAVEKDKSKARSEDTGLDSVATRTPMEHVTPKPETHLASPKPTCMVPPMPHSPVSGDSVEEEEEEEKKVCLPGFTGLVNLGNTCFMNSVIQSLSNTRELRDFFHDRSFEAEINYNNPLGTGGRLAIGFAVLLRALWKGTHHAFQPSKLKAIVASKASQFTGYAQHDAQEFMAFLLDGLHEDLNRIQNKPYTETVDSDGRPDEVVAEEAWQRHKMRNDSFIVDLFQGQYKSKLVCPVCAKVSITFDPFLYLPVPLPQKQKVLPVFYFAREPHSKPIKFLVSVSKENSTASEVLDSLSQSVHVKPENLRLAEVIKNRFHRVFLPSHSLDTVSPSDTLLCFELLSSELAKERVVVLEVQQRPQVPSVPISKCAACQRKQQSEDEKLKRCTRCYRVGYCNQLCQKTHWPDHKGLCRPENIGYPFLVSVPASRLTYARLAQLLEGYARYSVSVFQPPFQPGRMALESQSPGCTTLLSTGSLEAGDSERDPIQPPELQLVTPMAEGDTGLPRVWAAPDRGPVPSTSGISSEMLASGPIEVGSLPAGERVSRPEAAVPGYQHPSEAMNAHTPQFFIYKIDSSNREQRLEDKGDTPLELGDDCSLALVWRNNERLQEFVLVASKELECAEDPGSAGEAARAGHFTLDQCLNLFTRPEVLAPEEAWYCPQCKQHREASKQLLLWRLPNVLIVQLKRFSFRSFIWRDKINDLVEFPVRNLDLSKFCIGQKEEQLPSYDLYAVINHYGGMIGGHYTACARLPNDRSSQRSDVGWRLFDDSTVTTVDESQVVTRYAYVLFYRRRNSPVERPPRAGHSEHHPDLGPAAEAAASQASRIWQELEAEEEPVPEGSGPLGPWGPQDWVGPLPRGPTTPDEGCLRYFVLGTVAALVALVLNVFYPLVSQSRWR

Take `CN(C)C(=O)c1cn(CC2(O)CCN(C(=O)CCc3ccc(F)cc3)CC23CCCC3)c(=O)cc1-c1ccccc1` (centres unmarked) [Example 184, 1-((7-(3-(4-Fluorophenyl)propanoyl)-10-hydroxy-7-azaspiro[4.5]decan-10-yl)methyl)-N,N-dimethyl-6-oxo-4-phenyl-1,6-dihydropyridine-3-carboxamide]: the IC50 was 0.5 to 5 µM. With `C[C@H](CC(=O)N1CCC(O)(Cn2cc(C(=O)N3CCC4(CC3)OCCO4)c(-c3ccccc3)cc2=O)CC1)c1ccccc1` [Example 64, (R)-1-((4-Hydroxy-1-(3-phenylbutanoyl)piperidin-4-yl)methyl)-4-phenyl-5-(1,4-dioxa-8-azaspiro[4.5]decane-8-carbonyl)pyridin-2(1H)-one] the figure was 5 to 50 µM. With `C[C@H](CC1CCCCC1)C(=O)N1CCC(O)(Cn2cc(-c3ccccn3)c(-c3ccccc3F)cc2=O)C(C)(C)C1` (stereo partly drawn) [Example 154, 1′-((1-((R)-3-Cyclohexyl-2-methylpropanoyl)-4-hydroxy-3,3-dimethylpiperidin-4-yl)methyl)-4′-(2-fluorophenyl)-[2,3′-bipyridin]-6′(1′H)-one] the figure was 5 to 50 µM; with `CN(C)C(=O)c1cn(CC2(O)CCN(C(=O)CCC(F)(F)F)CC23CCCC3)c(=O)cc1-c1ccccc1` (centres unmarked) [Example 172, 1-((10-Hydroxy-7-(4,4,4-trifluorobutanoyl)-7-azaspiro[4.5]decan-10-yl)methyl)-N,N-dimethyl-6-oxo-4-phenyl-1,6-dihydropyridine-3-carboxamide], 5 to 50 µM; with `C[C@H](CC1CC1)C(=O)N1CCC(O)(Cn2cc(C(=O)N(C)C)c(-c3ccccc3)cc2=O)C2(CCCC2)C1` (stereo partly drawn) [Example 149, 1-((7-((R)-3-Cyclopropyl-2-methylpropanoyl)-10-hydroxy-7-azaspiro[4.5]decan-10-yl)methyl)-N,N-dimethyl-6-oxo-4-phenyl-1,6-dihydropyridine-3-carboxamide], less than 0.5 µM.

Regarding `C[C@H](CC(=O)N1CCC(O)(Cn2cc(C#N)c(-c3ccccc3)cc2=O)CC1)c1ccccc1` [Example 114, (R)-1-((4-Hydroxy-1-(3-phenylbutanoyl)piperidin-4-yl)methyl)-6-oxo-4-phenyl-1,6-dihydropyridine-3-carbonitrile], the IC50 was in the range of 5 to 50 µM. With `C[C@H](CC1CCC1)C(=O)N1CC[C@@](O)(Cn2cc(C(=O)N3CCNCC3)c(-c3ccccc3F)cc2=O)C2(CCCC2)C1` [Example 224, 1-(((S)-7-((R)-3-Cyclobutyl-2-methylpropanoyl)-10-hydroxy-7-azaspiro[4.5]decan-10-yl)methyl)-4-(2-fluorophenyl)-5-(piperazine-1-carbonyl)pyridin-2(1H)-one] the figure was less than 0.5 µM. Under `C[C@H](CC1CCC1)C(=O)N1CC[C@@](O)(Cn2cc(C(=O)N(C)C)c(-c3ccccc3)cc2=O)C2(CCCC2)C1` [Example 214, 1-(((S)-7-((R)-3-Cyclobutyl-2-methylpropanoyl)-10-hydroxy-7-azaspiro[4.5]decan-10-yl)methyl)-N,N-dimethyl-6-oxo-4-phenyl-1,6-dihydropyridine-3-carboxamide] stands less than 0.5 µM. On to `CC1(C(=O)N2CCC(O)(Cn3cnc(-c4ccccc4F)cc3=O)C(C)(C)C2)CCCCC1` (racemic) [Example 81, (R,S)-6-(2-Fluorophenyl)-3-((4-hydroxy-3,3-dimethyl-1-(1-methylcyclohexane-1-carbonyl)piperidin-4-yl)methyl)pyrimidin-4(3H)-one], for which the concentration for half-maximal inhibition (IC50) is 50 to 250 µM. Under `C[C@H](CC(=O)N1CCC(O)(Cn2cnc(-c3ccco3)cc2=O)CC1)c1ccccc1` [Example 26, (R)-6-(Furan-2-yl)-3-((4-hydroxy-1-(3-phenylbutanoyl)piperidin-4-yl)methyl)pyrimidin-4(3H)-one] stands 50 to 250 µM; under `CCC(C)(C)C(=O)N1CCC(O)(Cn2cc(C(=O)N(C)C(C)C)c(-c3ccccc3)cc2=O)CC1` [Example 84, 1-((1-(2,2-Dimethylbutanoyl)-4-hydroxypiperidin-4-yl)methyl)-N-isopropyl-N-methyl-6-oxo-4-phenyl-1,6-dihydropyridine-3-carboxamide], 50 to 250 µM; under `O=C(C[C@H](c1ccccc1)C(F)(F)F)N1CCC(O)(Cn2cnc(-c3ccccc3F)cc2=O)CC1` [Example 48, (R)-6-(2-Fluorophenyl)-3-((4-hydroxy-1-(4,4,4-trifluoro-3-phenylbutanoyl)piperidin-4-yl)methyl)pyrimidin-4(3H)-one], 50 to 250 µM.

As for `CC(C)N(C)C(=O)c1cn(CC2(O)CCN(C(=O)C3(c4cccs4)CC3)CC2)c(=O)cc1-c1ccccc1` [Example 72, 1-((4-Hydroxy-1-(1-(thiophen-2-yl)cyclopropane-1-carbonyl)piperidin-4-yl)methyl)-N-isopropyl-N-methyl-6-oxo-4-phenyl-1,6-dihydropyridine-3-carboxamide], the IC50 was in the range of 50 to 250 µM.

`CN(C)C(=O)c1cn(C[C@]2(O)CCN(C(=O)[C@H](CO)CC3CCCCC3)CC2(C)C)c(=O)cc1-c1ccccc1` [Example 152, 1-(((S)-1-((S)-3-Cyclohexyl-2-(hydroxymethyl)propanoyl)-4-hydroxy-3,3-dimethylpiperidin-4-yl)methyl)-N,N-dimethyl-6-oxo-4-phenyl-1,6-dihydropyridine-3-carboxamide]: the IC50 is less than 0.5 µM.

With `CC(CC(C)(C)C)C(=O)N1CCC(O)(Cn2cnc(-c3ccccc3F)cc2=O)C(C)(C)C1` (centres unmarked) [Example 142, 6-(2-Fluorophenyl)-3-((4-hydroxy-3,3-dimethyl-1-(2,4,4-trimethylpentanoyl)piperidin-4-yl)methyl)pyrimidin-4(3H)-one], the half-maximal inhibitory concentration (IC50) lay within 50 to 250 µM. With `C[C@H](CC1CCCCC1)C(=O)N1CC[C@@](O)(Cn2cc(C(=O)N3CCNCC3)c(C3CC3)cc2=O)C(C)(C)C1` [Example 221, 1-(((S)-1-((R)-3-Cyclohexyl-2-methylpropanoyl)-4-hydroxy-3,3-dimethylpiperidin-4-yl)methyl)-4-cyclopropyl-5-(piperazine-1-carbonyl)pyridin-2(1H)-one] the figure was 0.5 to 5 µM; with `CN(C)C(=O)c1cn(C[C@]2(O)CCN(C(=O)C(CC(F)(F)F)CC(F)(F)F)CC23CCCC3)c(=O)cc1-c1ccccc1` [Example 218, (S)-1-((10-Hydroxy-7-(4,4,4-trifluoro-2-(2,2,2-trifluoroethyl)butanoyl)-7-azaspiro[4.5]decan-10-yl)methyl)-N,N-dimethyl-6-oxo-4-phenyl-1,6-dihydropyridine-3-carboxamide], 0.5 to 5 µM. With `C[C@H](CC1CCCCC1)C(=O)N1CCC(O)(Cn2cnc(-c3ccc(CO)cc3)cc2=O)C(C)(C)C1` (stereo partly drawn) [Example 139, 3-((1-((R)-3-Cyclohexyl-2-methylpropanoyl)-4-hydroxy-3,3-dimethylpiperidin-4-yl)methyl)-6-(4-(hydroxymethyl)phenyl)pyrimidin-4(3H)-one] the figure was less than 0.5 µM. With `Cc1c(-c2cc(=O)n(CC3(O)CCN(C(=O)C[C@@H](C)c4ccccc4)CC3)cn2)cnn1C` [Example 112, (R)-6-(1,5-Dimethyl-1H-pyrazol-4-yl)-3-((4-hydroxy-1-(3-phenylbutanoyl)piperidin-4-yl)methyl)pyrimidin-4(3H)-one] the figure was 50 to 250 µM.

`C[C@H](CC(=O)N1CCC(O)(Cn2cnc(-c3cccc(C4OCCO4)c3)cc2=O)CC1)c1ccccc1` [Example 21, (R)-6-(3-(1,3-Dioxolan-2-yl)phenyl)-3-((4-hydroxy-1-(3-phenylbutanoyl)piperidin-4-yl)methyl)pyrimidin-4(3H)-one]: the IC50 fell in the range of 5 to 50 µM.

For the origin of these results see US11053213B2, “Pharmaceutical compounds” (ALMAC DISCOVERY LIMITED, priority 2016, dated 2021).
